Test results taken from patent US20140190599A1 (priority 2004, published 2014).

Tested on: rat
Settings: in vivo

Row | Compound | LD50rat [mg/kg]
1 | NNCCO.O=[N+]([O-])O [HEHN, 2-hydroxyethyl hydrazinium nitrate] | 325
2 | NN [Hydrazine] | 60
